Measurements taken from US10494402B2, “Peptides that stimulate subcutaneous adipogenesis” (The Regents of the University of California, priority 2012, dated 2019).

Assays:
[1] = tested on: mesenchymal stem cells or papillary fibroblasts; test: Adipogenesis by RHAMM antagonists in tissue culture and in vivo (summary statements)
Source text: (§1) We hypothesized that the fragment and the antibody were blocking RHAMM function by competitive inhibition and by direct binding/blocking of RHAMM, respectively. Using truncation analyses, the size of the peptide was further reduced to 32 amino acids ([…] (SEQ ID NO: 92)) and it was shown that adipogenic activity is localized to a 15 amino acid peptide (KLKDENSQLKSEVSK (SEQ ID NO: 2); “peptide B” or “B-1” herein) shown in FIG. 2. This peptide was chemically synthesized to use as a competitive blocker, and antibodies were prepared against this sequence tagged with keyhold lymphocyte hemacyanin (KLH) to directly bind/block RHAMM function.
The RHAMM sequence that contains adipogenic activity also contains the hyaluronan binding region of this protein.
All of these reagents can replace insulin in their ability to promote adipogenesis in mesenchymal stem cells or papillary fibroblasts.

[2] = tested on: 2D rat Pre-adipocytes (rat mesenchymal stem cells); test: Adipogenic potential ranking in 2D tissue culture, rat pre-adipocytes; format: cell-based; settings: ranked on a scale of 0-5 with 5 representing the highest possible score
Method: (§2) Examples of the adipogenic effects of RHAMM antagonists (peptide B (SEQ ID NO: 2), peptide P15-1 (SEQ ID NO. 1), and the antibody to peptide B) are summarized in Table 1. Peptide P15-1, peptide B, and a RHAMM antibody were assayed for their effects on pre-adipocyte stem cells in culture and when injected into the dermis of aged rats. Reagents were ranked on a scale of 0-5 with 5 representing the highest possible score and a completely filled in Harvey ball. “2D” refers to two-dimensional tissue culture.

2D human Pre-adipocytes = test: Adipogenic potential ranking in 2D tissue culture, human pre-adipocytes; format: cell-based; settings: scale of 0-5, 5 highest
Method: as §2

nude guinea pigs = test: Subcutaneous fat deposition in nude guinea pigs; format: in vivo, guinea pig; settings: injection on upper back and in ear fat pad; control collagen gel vehicle only
Method: Peptide B (SEQ ID NO: 2) was also tested for its effect in nude guinea pigs since their skin structure resembles human facial skin. In particular, the skin of this animal model is more similar to human skin than is rat skin, in that it is hairless and the keratinocyte layer is thicker than in the rat model. […] Thus, peptide B was effective in promoting adipogenesis in this nude guinea pig model.

RHAMM = test: Blocking of RHAMM function; settings: competitive blocker / direct binding
Source text: as §1

Human pre-adipocytes = test: Adipogenesis in 3D collagen gel culture; format: cell-based; settings: 3D collagen gels in the presence of adipogenic cocktail
Method: The adipogenic activity of peptide B (SEQ ID NO:2) was also examined using a three-dimensional (3D) culture system that models human skin.
Human pre-adipocytes were cultured in 3D collagen gels in the presence of the adipogenic cocktail described above (Adipocyte Differentiation Medium (ZenBio catalog no. DM-2)) and exposed to peptide B (SEQ ID NO: 2). […] The 3D results predict the ability of the B peptide to promote adipogenesis in vivo.

[3] = tested on: Female Fisher retired breeder rats; test: In vivo adipogenic activity in female retired breeder rat model; settings: 100 μg subcutaneous in 1 ml collagen vehicle; 7 days
Method: The adipogenic activity of the KSEVSK 6-mer (SEQ ID NO: 3) was also evaluated in vivo in a female retired breeder rat model. Female Fisher retired breeder rats (>9 months old) were used in these studies. The rats were injected subcutaneously with a 100 μg dose of the KSEVSK 6-mer peptide in 1 ml of a collagen vehicle or with collagen vehicle alone. The collagen vehicle contained 1 mg/ml of rat tail Type I collagen. […] Rats were injected with KSEVSK 6-mer peptide and collagen vehicle at sites A and C and with collagen vehicle only at sites B and D. Animals were maintained on a regular diet for 7 days and then euthanized Skin was harvested by cutting around the injected area, ensuring that underlying adipose tissue was retained with the skin at the injection sites. The tissue was then photographed and fat accumulation was assessed.

Substance: KLKDENSQLKSEVSK [peptide B]
- adipogenesis in tissue culture and in vivo [1]: promote adipogenesis in tissue culture and in vivo
- adipogenicity relative to the other reagents of Table 1 [1]: the most adipogenic of these reagents
- adipogenic potential, 2D rat Pre-adipocytes (rat mesenchymal stem cells) [2]: 5
- adipogenic potential, 2D human Pre-adipocytes (2D human Pre-adipocytes): 5
- subcutaneous fat deposition (H and E staining) (nude guinea pigs): increase in subcutaneous fat deposition
- RHAMM function (RHAMM): effectively block RHAMM function
- adipogenesis (light refractory lipid droplets) (Human pre-adipocytes): promoted adipogenesis

Substance: KSEVSK [KSEVSK 6-mer]
- fat pad surface area vs collagen vehicle alone [3]: significantly larger
